According to patent US10716797B2, “Steroid alkaloids and compositions and kits thereof” (priority 2013, dated 2020):

Experiments:
MRSA COL = assay: MIC by microdilution, alone or in combination, MRSA COL; type: cell-based, Staphylococcus aureus; conditions: Staphylococcus aureus, agent used alone, read-out: MIC
Method: (§1) Method. The minimal inhibitory concentrations (MICs), (i.e. lowest concentration of an antimicrobial that will inhibit the visible growth of a microorganism after incubation), of test compounds were determined against the normal or SCV strains of bacterial species from the Firmicutes phylum. Briefly, MICs were determined using the microdilution method in 96-well plates (Clinical and Laboratory Standards Institute (CLSI), 2011). Bacteria were inoculated at ˜10^5-10^6 CFU/mL and incubated at 35° C. for 20 h (normal strains) or 48 h (SCVs) in brain heart infusion (BHI) broth in order to allow SCVs to reach maximal growth as previously described (Mitchell et al., 2012). Then OD595 nm was read on a microplate reader. […] In this example the range of compound concentrations tested was 0.03 to 64 μg/ml using doubling increments. Strain Staphylococcus aureus NewbouldΔhemB (hemB) was also used in the experiments and is a laboratory-derived stable SCV created by the insertion of the macrolide resistance gene ermA in the hemB gene of this strain to create the SCV phenotype (defective electron transport chain and respiratory deficiency) through inactivation of hemin biosynthesis (Brouillette et al., 2004).
(§2) In the present Example the range of compound concentrations tested, using doubling increments, was 0.03 to 64 μg/ml for Compound 14 and up to 1024 μg/ml for gentamicin (GEN), kanamycin (KAN) and cefalexin (CEF) when these compounds were used alone. Compound 14 (Cpd 14) was used at a fixed concentration of 4 μg/ml when added to other antibiotics. The combination of CEF and KAN was used in a 3:2 ratio and doubling increments were used to test the antibacterial activity against MRSA in the absence or presence of Compound 14.

[1] = test system: methicillin-resistant Staphylococcus aureus (MRSA) strains; assay: MIC against MRSA strains; type: cell-based; conditions: Staphylococcus aureus, MRSA, used alone; tested MRSA strains (kanamycin: two of the strains)
Method: as §1, §2

MRSA USA100 = assay: MIC by microdilution, alone or in combination, MRSA USA100; type: cell-based, Staphylococcus aureus; conditions: Staphylococcus aureus, agent used alone, read-out: MIC
Method: as §1, §2

MRSA USA300 = assay: MIC by microdilution, alone or in combination, MRSA USA300; type: cell-based, Staphylococcus aureus; conditions: Staphylococcus aureus, agent used alone, read-out: MIC
Method: as §1, §2

Measured: MIC

CC1=C(C(=O)O)N2C(=O)[C@@H](NC(=O)[C@H](N)c3ccccc3)[C@H]2SC1 [Cefalexin, cefalexin]
256 µg/mL: all assays above
